Legend:
human AT1 receptor = target: T1, human AT1 receptor (Homo sapiens, UniProt P30556); experiment: AT1 radioligand binding assay (displacement of [Eu]AngII); details: membranes of CHO-K1 cells expressing cloned human AT1 receptor; values given as lower bounds; read-out: AT1 pKi (converted)
T1 construct: expressed in transfected cells; host or cells: CHO-K1
T1 sequence (P30556 1-359): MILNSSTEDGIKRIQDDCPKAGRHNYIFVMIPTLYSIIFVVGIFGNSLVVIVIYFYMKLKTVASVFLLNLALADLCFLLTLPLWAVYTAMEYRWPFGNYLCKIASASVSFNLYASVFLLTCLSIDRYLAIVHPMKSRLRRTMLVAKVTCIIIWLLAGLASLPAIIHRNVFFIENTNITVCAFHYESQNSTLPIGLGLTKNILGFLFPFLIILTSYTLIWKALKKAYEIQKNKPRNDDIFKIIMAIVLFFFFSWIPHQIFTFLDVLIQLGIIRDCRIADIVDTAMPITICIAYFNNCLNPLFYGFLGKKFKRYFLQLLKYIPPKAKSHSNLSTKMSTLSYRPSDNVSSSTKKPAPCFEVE
Method in brief: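 Membranes from CHO-K1 cells stably expressing cloned human AT1, 0.2 μg protein, in 50 mM Tris/HCl pH 7.5, 5 mM MgCl2, 0.025% BSA. Compounds displaced [Eu]AngII over 120 min in the dark at room temperature or 37° C; filter-bound TRF read. Nonspecific binding with 10 μM angiotensin II; IC50 converted to Ki via Cheng-Prusoff, reported as pKi.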

NEP enzyme = target: T2, NEP enzyme (Homo sapiens, UniProt P08473); experiment: NEP enzyme inhibition assay (fluorogenic peptide substrate); assay type: biochemical; details: values given as lower bounds; * = prodrugs, may not exhibit NEP activity in an in vitro assay; read-out: NEP pIC50 (converted)
T2 construct: purchased R&D Systems, Minneapolis, Minn; 1182-ZN
Method in brief: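 Recombinant human NEP was run with Mca-BK2 (10 μM) at room temperature in Tris buffer with 1 μM Zn. Compounds (10 μM–20 pM, 12 points) were pre-equilibrated 10 min, then reacted 20 min and acid-stopped. Fluorescence ex 320/em 405 nm, one-site competition fit gives pIC50. Thiol compounds may be pre-treated with 400 μM TCEP.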

T2 sequence (P08473 52-750 limits assumed): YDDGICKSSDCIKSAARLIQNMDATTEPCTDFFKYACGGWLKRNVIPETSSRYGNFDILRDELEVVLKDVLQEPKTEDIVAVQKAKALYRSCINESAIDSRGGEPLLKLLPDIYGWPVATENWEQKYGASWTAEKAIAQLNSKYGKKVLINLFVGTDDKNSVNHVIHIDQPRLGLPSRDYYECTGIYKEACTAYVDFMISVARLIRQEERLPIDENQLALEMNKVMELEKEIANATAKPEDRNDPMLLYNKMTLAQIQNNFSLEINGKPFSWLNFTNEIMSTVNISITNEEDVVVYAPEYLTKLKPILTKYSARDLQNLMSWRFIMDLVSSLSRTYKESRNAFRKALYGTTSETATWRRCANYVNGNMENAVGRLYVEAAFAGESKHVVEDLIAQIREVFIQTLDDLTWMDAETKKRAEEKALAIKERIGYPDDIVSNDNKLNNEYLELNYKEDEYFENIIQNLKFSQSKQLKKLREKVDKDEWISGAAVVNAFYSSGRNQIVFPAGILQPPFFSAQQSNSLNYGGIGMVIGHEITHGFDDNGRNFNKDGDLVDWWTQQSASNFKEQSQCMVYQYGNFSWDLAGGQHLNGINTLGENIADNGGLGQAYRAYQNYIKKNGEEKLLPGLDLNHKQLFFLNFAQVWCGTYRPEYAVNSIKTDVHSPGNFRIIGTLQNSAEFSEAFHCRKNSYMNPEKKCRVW

Row | Ki (human AT1 receptor) | IC50 (NEP enzyme) | Compound
1 | ≤ 10 nM | ≤ 100 nM | CCCc1cc(C(=O)N[C@H](Cc2ccccc2Cl)[C@@H](O)C(=O)O)nn1Cc1ccc(-c2ccccc2-c2nnn[nH]2)nc1 [Example 14-5, (2R,3R)-4-(2-Chlorophenyl)-2-hydroxy-3-[(5-propyl-1-{6-[2-(1H-tetrazol-5-yl)phenyl]pyridin-3-ylmethyl}-1H-pyrazole-3-carbonyl)amino]butyric acid]
2 | ≤ 10 nM | ≤ 100 nM | CCCc1cc(C(=O)N[C@@H](CS)Cc2ccccc2)nn1Cc1ccc(-c2ccccc2-c2nnn[nH]2)nc1 [Example 14-2, 5-Propyl-1-{6-[2-(1H-tetrazol-5-yl)phenyl]pyridin-3-ylmethyl}-1H-pyrazole-3-carboxylic acid ((R)-1-benzyl-2-mercaptoethyl)amide]
3 | ≤ 10 nM | ≤ 100 nM | CCCc1cc(C(=O)N[C@@H](CC(C)C)CN(O)C=O)nn1Cc1ccc(-c2ccccc2S(=O)(=O)NC(C)=O)cc1 [Example 6-23, 1-(2′-Acetylsulfamoyl-biphenyl-4-ylmethyl)-5-propyl-1H-pyrazole-3-carboxylic acid {(S)-1-[(formylhydroxyamino)methyl]-3-methylbutyl}amide]
4 | ≤ 10 nM | ≤ 100 nM | CCCc1cc(C(=O)N[C@H](Cc2ccccc2)[C@@H](O)C(=O)O)nn1Cc1ccc(-c2ccccc2S(=O)(=O)NC(=O)C2CC2)cc1 [Example 7-2, (2R,3R)-3-({1-[2′-(Cyclopropanecarbonylsulfamoyl)biphenyl-4-ylmethyl]-5-propyl-1H-pyrazole-3-carbonyl}amino)-2-hydroxy-4-phenylbutyric acid]
5 | ≤ 10 nM | ≤ 1000 nM | CCCc1cc(C(=O)N[C@@H](CC(=O)O)Cc2ccccc2C(F)(F)F)nn1Cc1ccc(-c2ccccc2S(=O)(=O)NC(C)=O)cc1 [Example 6-25, (R)-3-{[1-(2′-Acetylsulfamoylbiphenyl-4-ylmethyl)-5-propyl-1H-pyrazole-3-carbonyl]amino}-4-(2-trifluoromethylphenyl)butyric acid]
6 | ≤ 10 nM | ≤ 100 nM | CCCc1cc(C(=O)N[C@@H](CC(=O)NO)Cc2ccccc2)nn1Cc1ccc(-c2ccccc2S(=O)(=O)NC(C)=O)cc1 [Example 6-18, 1-(2′-Acetylsulfamoylbiphenyl-4-ylmethyl)-5-propyl-1H-pyrazole-3-carboxylic acid ((R)-1-benzyl-2-hydroxycarbamoylethyl)amide]
7 | ≤ 10 nM | ≤ 100 nM | CCCc1cc(C(=O)N[C@H](Cc2ccccc2)[C@@H](O)C(=O)O)nn1Cc1ccc(-c2ccccc2S(=O)(=O)NC(C)=O)cc1F [Example 6-14, (2R,3R)-3-(1-((2′-(N-acetylsulfamoyl)-3-fluorobiphenyl-4-yl)methyl)-5-propyl-1H-pyrazole-3-carboxamido)-2-hydroxy-4-phenylbutanoic acid]
8 | ≤ 10 nM | ≤ 1000 nM | CCCc1cc(C(=O)N[C@@H](CC(=O)O)Cc2ccccc2Cl)nn1Cc1ccc(-c2ccccc2S(=O)(=O)NC(C)=O)cc1 [Example 6-27, (R)-3-{[1-(2′-Acetylsulfamoylbiphenyl-4-ylmethyl)-5-propyl-1H-pyrazole-3-carbonyl]amino}-4-(2-chlorophenyl)butyric acid]
9 | ≤ 10 nM | ≤ 100 nM | CCCc1cc(C(=O)N[C@H](Cc2ccccc2)[C@@H](O)C(=O)O)nn1Cc1ccc(-c2ccccc2-n2nn[nH]c2=O)cc1 [Example 16-3, (2R,3R)-2-Hydroxy-3-({1-[2′-(5-oxo-4,5-dihydrotetrazol-1-yl)-biphenyl-4-ylmethyl]-5-propyl-1H-pyrazole-3-carbonyl}amino)-4-phenylbutyric acid]
10 | ≤ 100 nM | ≤ 100 nM | CCCc1cc(C(=O)N[C@H](Cc2ccccc2)[C@@H](O)C(=O)O)nn1Cc1ccc(-c2ccccc2C(=O)O)c(F)c1F [Example 9-7, 4′-[3-((1R,2R)-1-Benzyl-2-carboxy-2-hydroxyethylcarbamoyl)-5-propylpyrazol-1-ylmethyl]-2′,3′-difluorobiphenyl-2-carboxylic acid]
11 | ≤ 10 nM | ≤ 100 nM | CCCc1cc(C(=O)N[C@H](Cc2ccccc2)[C@@H](O)C(=O)O)nn1Cc1ccc(-c2ccccc2S(=O)(=O)NC(=O)CCOC)cc1 [Example 7-17, (2R,3R)-2-Hydroxy-3-({1-[2′-(3-methoxy-propionylsulfamoyl)biphenyl-4-ylmethyl]-5-propyl-1H-pyrazole-3-carbonyl}amino)-4-phenylbutyric acid]
12 | ≤ 10 nM | ≤ 1000 nM | CCCc1cc(C(=O)N[C@@H](CC(=O)O)Cc2ccccc2Br)nn1Cc1ccc(-c2ccccc2S(=O)(=O)NC(C)=O)cc1 [Example 6-8, (R)-3-{[1-(2′-Acetylsulfamoylbiphenyl-4-ylmethyl)-5-propyl-1H-pyrazole-3-carbonyl]amino}-4-(2-bromophenyl)butyric acid]
13 | ≤ 10 nM | ≤ 1000 nM | CCCc1cc(C(=O)N[C@H](Cc2ccccc2)[C@@H](O)C(=O)O)nn1Cc1ccc(-c2ccccc2S(=O)(=O)NC(=O)c2ccncc2)cc1 [Example 7-4, (2R,3R)-2-Hydroxy-4-phenyl-3-[(5-propyl-1-{2′-[(pyridine-4-carbonyl)sulfamoyl]biphenyl-4-ylmethyl}-1H-pyrazole-3-carbonyl)amino]butyric acid]

The remaining lines, values behind:

Row | Compound | Ki (human AT1 receptor) | IC50 (NEP enzyme)
14 | CCOc1cc(C(=O)N[C@@H](CS)CC(C)C)nn1Cc1ccc(-c2ccccc2-c2nnn[nH]2)cc1F [Example 3-38, 5-Ethoxy-1-[3-fluoro-2′-(1H-tetrazol-5-yl)biphenyl-4-ylmethyl]-1H-pyrazole-3-carboxylic acid ((R)-1-mercaptomethyl-3-methylbutyl)amide] | ≤ 100 nM | ≤ 100 nM
15 | CCCc1cc(C(=O)N[C@@H](CC(=O)O)Cc2ccccc2C(F)(F)F)nn1Cc1ccc(-c2ccccc2-c2nnn[nH]2)nc1 [Example 11, (R)-3-[(5-Propyl-1-{6-[2-(1H-tetrazol-5-yl)-phenyl]-pyridin-3-ylmethyl}-1H-pyrazole-3-carbonyl)-amino]-4-(2-trifluoromethylphenyl)butyric Acid] | ≤ 10 nM | ≤ 100 nM
16 | CCCc1cc(C(=O)N[C@@H](CC(=O)O)Cc2ccccc2C(F)(F)F)nn1Cc1ccc(-c2ccccc2-c2nnn[nH]2)cc1F [Example 3-21, (R)-3-(1-((3-fluoro-2′-(1H-tetrazol-5-yl)biphenyl-4-yl)methyl)-5-propyl-1H-pyrazole-3-carboxamido)-4-(2-(trifluoromethyl)phenyl)butanoic acid] | ≤ 100 nM | ≤ 1000 nM
17 | CCCc1cc(C(=O)N[C@H](Cc2ccccc2)[C@@H](O)C(=O)O)nn1Cc1ccc(-c2ccccc2S(=O)(=O)NC(=O)OC)cc1 [Example 5, (2R,3R)-2-hydroxy-3-(1-((2′-(N-(methoxycarbonyl)-sulfamoyl)biphenyl-4-yl)methyl)-5-propyl-1H-pyrazole-3-carboxamido)-4-phenylbutanoic Acid] | ≤ 10 nM | ≤ 100 nM
18 | CCOc1cc(C(=O)N[C@@H](CC(=O)O)Cc2ccccc2)nn1Cc1ccc(-c2ccccc2-c2nnn[nH]2)cc1 [Example 3-32, (R)-3-({5-Ethoxy-1-[2′-(1H-tetrazol-5-yl)biphenyl-4-ylmethyl]-1H-pyrazole-3-carbonyl}amino)-4-phenylbutyric acid] | ≤ 100 nM | ≤ 10000 nM
19 | CCCc1cc(C(=O)N[C@@H](CC(=O)OC)Cc2ccccc2)nn1Cc1ccc(-c2ccccc2-c2nnn[nH]2)cc1 [Example 3-27, (R)-4-Phenyl-3-({5-propyl-1-[2′-(1H-tetrazol-5-yl)-biphenyl-4-ylmethyl]-1H-pyrazole-3-carbonyl}amino)butyric acid methyl ester] | ≤ 10 nM | ≤ 10000 nM
20 | CCCc1cc(C(=O)N[C@H](Cc2ccccc2)CN(O)C=O)nn1Cc1ccc(-c2ccccc2-c2nnn[nH]2)cc1 [Example 3-14, 5-Propyl-1-[2′-(1H-tetrazol-5-yl)-biphenyl-4-ylmethyl]-1H-pyrazole-3-carboxylic acid [(R)-1-benzyl-2-(formylhydroxyamino)ethyl]amide] | ≤ 10 nM | ≤ 100 nM
21 | CCCc1cc(C(=O)N[C@@H](CC(=O)O)Cc2ccccc2F)nn1Cc1ccc(-c2ccccc2-c2nnn[nH]2)nc1 [Example 12, (R)-4-(2-Fluorophenyl)-3-[(5-propyl-1-{6-[2-(1H-tetrazol-5-yl)phenyl]pyridin-3-ylmethyl}-1H-pyrazole-3-carbonyl)amino]butyric acid] | ≤ 10 nM | ≤ 100 nM
22 | CCCc1cc(C(=O)N[C@@H](CC(=O)O)Cc2ccccc2Cl)nn1Cc1ccc(-c2ccccc2-c2nnn[nH]2)c(F)c1 [Example 3-18, (R)-4-(2-Chlorophenyl)-3-({1-[2-fluoro-2′-(1H-tetrazol-5-yl)biphenyl-4-ylmethyl]-5-propyl-1H-pyrazole-3-carbonyl}amino)butyric acid] | ≤ 10 nM | ≤ 1000 nM
